PubChem BioAssay (NCI)
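Cultured in 96-well plates, cells were exposed to test compound for 48 hours across five concentrations. TGI denotes the concentration required for complete inhibition of growth.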

Columns and labels:
Experiment in all cases: NCI-60 cell line screen, 48 h
CAKI-1 renal = tested on: CAKI-1 renal
HT29 colon = tested on: HT29 colon
M14 melanoma = tested on: M14 melanoma
OVCAR-3 ovarian = tested on: OVCAR-3 ovarian
SK-MEL-28 melanoma = tested on: SK-MEL-28 melanoma
SNB-75 CNS = tested on: SNB-75 CNS
SW-620 colon = tested on: SW-620 colon
SF-539 CNS = tested on: SF-539 CNS
SK-MEL-5 melanoma = tested on: SK-MEL-5 melanoma
DU-145 prostate = tested on: DU-145 prostate
PC-3 prostate = tested on: PC-3 prostate

Structure (SMILES) | TGI (CAKI-1 renal) | TGI (HT29 colon) | TGI (M14 melanoma) | TGI (OVCAR-3 ovarian) | TGI (SK-MEL-28 melanoma) | TGI (SNB-75 CNS) | TGI (SW-620 colon) | TGI (SF-539 CNS) | TGI (SK-MEL-5 melanoma) | TGI (DU-145 prostate) | TGI (PC-3 prostate)
Cc1cc(Cc2cc(C)c(NC(=O)C(=O)C3C(=O)NC(=S)NC3=O)c(C(C)C)c2)cc(C(C)C)c1NC(=O)C(=O)C1C(=O)NC(=S)NC1=O | > 100 µM | > 100 µM | > 100 µM | > 100 µM | > 100 µM | > 100 µM | > 100 µM |  |  |  | 
COc1ccc(NC(=O)C(=O)NNC(=O)c2sc(NNC(C)=O)nc2C)c([N+](=O)[O-])c1 |  | > 100 µM | > 100 µM | > 100 µM | > 100 µM |  | > 100 µM | > 100 µM | > 100 µM |  | 
COc1cccc(NCC(=O)Nn2c(-c3ccccc3)nc3ccccc3c2=O)c1 |  | > 100 µM | > 100 µM | > 100 µM | > 100 µM | > 100 µM | > 100 µM | > 100 µM | > 100 µM | > 100 µM | > 100 µM
CCc1cccc(C(C)C)c1NC(=O)C(=O)C(C(=O)C(=O)OC)c1nc2ccccc2[nH]c1=O (configuration not stated) | > 100 µM | > 100 µM | > 100 µM |  | > 100 µM | > 100 µM | > 100 µM |  | > 100 µM |  | 
Cc1cc(N(CCC#N)CCC#N)ccc1/C=C(\NC(=O)/C=C/c1ccccc1)NC(=O)Nc1ccc(Cl)cc1 | > 100 µM | > 100 µM | > 100 µM | > 100 µM | > 100 µM |  | > 100 µM | > 100 µM | > 100 µM |  | 
CCSc1nc2sc(C)c(C)c2c(=O)n1-c1ccc(C(=O)O)cc1 | > 100 µM | > 100 µM | > 100 µM | 74.4 µM | > 100 µM | 70 µM | > 100 µM | 55 µM | > 100 µM |  | 
C[C@@]12CC[C@H]3[C@@H]4CCC(=O)N[C@@]4(C)CC[C@@H]3[C@@]1(C)CC[C@H](OC(=O)Cc1ccc(N(CCCl)CCCl)cc1)C2 | 30.5 µM | 27.8 µM |  | 34.6 µM | 33 µM | 33.5 µM | 34.1 µM | 33.4 µM | 27.1 µM |  | 
O=C(CSc1nnc(Cc2ccccc2)o1)Nc1ccc(Cl)cc1 | > 100 µM | > 100 µM | > 100 µM | > 100 µM | > 100 µM | > 100 µM | > 100 µM | > 100 µM | > 100 µM |  | 
CO/N=C1\CCC2(O)C3Cc4ccc(O)c5c4C2(CCN3CC2CC2)[C@H]1O5 (some centres not stated) | > 100 µM | > 100 µM | > 100 µM | > 100 µM | > 100 µM |  | > 100 µM | > 100 µM | > 100 µM | > 100 µM | > 100 µM
N#C/C(=C/c1cccnc1)C(=O)c1ccccc1 | > 100 µM | > 100 µM | > 100 µM | > 100 µM | > 100 µM | > 100 µM | > 100 µM | > 100 µM | > 100 µM |  | 
OCCCSc1ccccc1SCCCO |  | > 100 µM | > 100 µM | > 100 µM | > 100 µM | > 100 µM | > 100 µM | > 100 µM | > 100 µM | > 100 µM | > 100 µM
CC1=C(C(=O)OCCO[N+](=O)[O-])C(c2ccccc2C(F)(F)F)C(C(=O)OC(C)C)=C(C)N1 (configuration not stated) | 52.3 µM | 36.3 µM | 31.4 µM | 29.2 µM | 33.5 µM |  | > 100 µM | 31.6 µM | 22.1 µM | > 100 µM | 34.5 µM
O=[N+]([O-])c1ccc(NC2OCC(O)C(O)C2O)cc1 (configuration not stated) | > 100 µM | > 100 µM | > 100 µM | > 100 µM | > 100 µM | > 100 µM | > 100 µM | > 100 µM | > 100 µM |  | 
CCCCCCOc1ccc(NC2=C(Cl)C(=O)c3cccnc3C2=O)cc1 |  | 6.66 µM | 2.87 µM | 2.85 µM | 5.03 µM | 2.79 µM | 3.88 µM | 4.19 µM | 2.31 µM | 2.9 µM | > 10 µM
C/C(Cl)=N\OC(=O)Nc1ccccc1C(F)(F)F | > 100 µM | 34.7 µM |  | 29.2 µM | 42.3 µM | > 100 µM | 36.1 µM | > 100 µM | > 100 µM | > 100 µM | > 100 µM
O=c1nc2n(cc1/C=C\Br)C1CC(O)C(CO2)O1 (configuration not stated) | > 100 µM | > 100 µM |  | > 100 µM | > 100 µM | > 100 µM | > 100 µM | > 100 µM | > 100 µM | > 100 µM | 
